The experiment concerns B6A/J FAPs. Briefly: Spontaneous adipogenesis of B6A/J FAPs in culture with batimastat (Oil Red O). In kind it is cell-based, mouse. To be noted: 10 μM batimastat from day 3 in culture; 40,000 FAPs from 12Mo B6A/J mice; vs untreated. As for the experimental part: To test this, and to independently confirm the benefit of inhibiting adipogenic differentiation of FAPs for dysferlinopathy, a drug was used to inhibit adipogenic differentiation of FAPs. […] To test the ability of batimastat to prevent the spontaneous adipogenesis of B6A/J FAPs, 40,000 FAPs isolated from 12Mo B6A/J mice were treated with 10 μM batimastat starting from 3 days in culture. Using Oil Red O, the extent of adipogenic differentiation of these FAPs after 14 days in culture was quantified in vitro (FIG. 11A).
Isolation and In Vitro Adipogenesis of FAPs. FAPs were isolated from the hindlimb muscles of 6Mo B6A/J mice in a modified protocol from previously published studies. Mice were euthanized and the tibialis anterior, extensor digitorum longus, gastrocnemius, soleus, quadriceps and psoas were immediately dissected. Non-muscle tissue including tendon, nerve and overlying fascia were carefully removed, and muscles were minced finely in a sterile dish and incubated in Collagenase II (2.5 U/ml, ThermoFisher, #17101015) in PBS for 30 min at 37° C. The resulting slurry was washed with sterile PBS before further digest in Collagenase D (1.5 U/ml, Sigma Aldridge, #COLLD-RO) and Dispase II (2.4 U/ml, Sigma Aldridge, #D4693) in PBS for 60 min at 37° C. […]

Structures are written as SMILES.

`CNC(=O)[C@H](Cc1ccccc1)NC(=O)[C@H](CC(C)C)[C@H](CSc1cccs1)C(=O)NO` [batimastat]: the “spontaneous adipogenesis of the B6A/J FAPs (Oil Red O)” value is reported as “reduced spontaneous adipogenesis”.

Values taken from patent US12594278B2, “Method for treatment of muscular dystrophy” (CHILDREN'S NATIONAL MEDICAL CENTER, priority 2019, dated 2026).
